Assays:
Format in all cases: physicochemical
[1] = Effect of suppressing volatilization: retained ethanol by gas chromatography (Example C-2); conditions: for Amount of Retained Ethanol: per 1 g of material
Method: About 5 g of an ethanol-retaining material with CTS crystalline anhydrate, branched cyclodextrin, anhydrous trehalose, or dextrin, prepared freshly by the method described in Example C-1, was taken into a 20 ml volume of glass vials. The vials were placed under normal pressure and room temperature for the purpose of evaporating ethanol. The amount of retained ethanol in samples freshly prepared, or after two hours later, four hours later, eight hours later, or 24 hours later, was measured by dissolving each sample in about 10 ml of water, diluting it with water to give a volume of 100 ml in a glass measuring flask, and measuring the amount of ethanol dissolved in the resulting aqueous solution by a gas chromatography. In the case of a soluble starch as a sample, additional centrifuging was carried out after diluting up to 100 ml. The above gas chromatography was carried out using “GC-14B” (a gas liquid chromatography commercialized by Shimazu Corporation, Kyoto, Japan) equipped with “TC-5” (a capillary column sized 0.53 mm in diameter and 15 m in length, commercialized by GL Sciences Inc., Tokyo, Japan). The amount of retained ethanol per 1 g of each material is in Table 2.
In this table, each value in the parentheses means a relative percentage to the ethanol amount (100%) just after its preparation.

[2] = Adsorption of liquid ethanol or acetic acid on saccharide powder (Example C-1); conditions: until mixture did not keep a powder form; for Amount of Adsorbed Acetic Acid: acetic acid adsorbed on 1 g of saccharide; for Amount of Adsorbed Ethanol: ethanol adsorbed on 1 g of saccharide
Excerpt: CTS crystalline pentahydrate, prepared by the method described in Example B-3, CTS crystalline monohydrate, prepared by the method described in Example B-4, CTS crystalline anhydrate, prepared by the method described in Example B-5, or CTS amorphous anhydrate prepared by the method described in Example B-6, was used for preparation of aroma-retaining material. “ISOELEAT P™”, a branched cyclodextrin commercialized by Maruha corporation, Tokyo, Japan, anhydrous trehalose prepared by the method described in Japanese Patent Kokai No. 111,284/97, “PINEFIBRE™”, a dextrin commercialized by Matsutani Chemical Industries Co., Ltd., Tokyo, Japan, or soluble starch in a reagent grade commercialized by Katayama Chemical Industries, Co., Ltd., Tokyo, Japan, was dried in vacuo at 80° C. for 16 hours as control saccharides. […] The resulting mixture was weighed. The weight of ethanol or acetic acid was calculated by subtracting the pre-measured saccharide weight. The weight of ethanol or acetic acid adsorbed on 1 g of each saccharide was in Table 1.

[3] = Adsorption and 10-day retention of lavender oil, citronellol or phenethyl alcohol on saccharides (Example C-4); conditions: for Amount of the Adsorbed Substance: freshly prepared sample; for Relative Amount of the Retained Substance: preserved at 25° C. for 10 days vs freshly prepared
Excerpt: The following example is a test to confirm the effect of CTS crystalline hydrate, CTS crystalline anhydrate, or CTS amorphous anhydrate on retaining, as an aromatic substance, lavender oil, citronellol, or phenethyl alcohol. CTS crystalline pentahydrate prepared by the method described in Example B-3, CTS crystalline anhydrate in Example B-5, and CTS amorphous anhydrate in Example B-6 were used as the test saccharides “ISOELEAT P®”, a branched cyclodextrin commercialized by Maruha Corporation, Tokyo, Japan, was used as a control.
In the case of lavender oil, five parts by weight of each of the above saccharides were taken into a glass dish sized 90 mm in diameter and 20 mm in depth, admixed with one part by weight of lavender oil by stirring. Lavender oil was measured by the method described as follows; admixing 2 ml of diethyl ether with 1 g of each of the above samples freshly prepared or after preserved at 25° C. for 10 days; measuring the extracted lavender oil by gas chromatography using “GC-14B” (a gas chromatography commercialized by Shimazu corporation, Kyoto, Japan) equipped with “TC-Wax” (a capillary column sized 0.53 mm in diameter and 25 m in length commercialized by GL Sciences Inc., Tokyo, Japan.
In the case of citronellol or phenethyl alcohol, five parts by weight of each of the above saccharides were taken into a glass dish sized 90 mm in diameter and 20 mm in depth, admixed with one part by weight of citronellol or phenethyl alcohol, and mixed by stirring. The adsorbed citronellol or phenethyl alcohol was measured by admixing 2 ml of diethyl ether with 1 g of each of the above sample freshly prepared or after preserved at 25° C. for 10 days, and measuring the extracted lavender oil by gas chromatography using “GC-14B” (a gas chromatography device commercialized by Shimazu corporation, Kyoto, Japan) equipped with “DB-5” (a capillary column sized 0.25 mm in diameter and 30 m in length commercialized by GL Sciences Inc., Tokyo, Japan).
The amount of the retained aromatic substance in each sample was calculated using the following formula, and the results were shown in Table 4.
Formula: Relative amount of the retained Substance (%)={(an amount of aromatic substance in a sample preserved for 10 days)/(an amount of aromatic substance in a freshly prepared sample)}×100

[4] = 2 h later, normal pressure, room temperature
[5] = 4 h later, normal pressure, room temperature
[6] = 8 h later, normal pressure, room temperature
[7] = 24 h later, normal pressure, room temperature
[8] = citronellol, listed as Sample 2
[9] = lavender oil, listed as Sample 2
[10] = phenethyl alcohol, listed as Sample 2

Relative percentage to the ethanol amount just after preparation ([1]; 2 h later) | Relative percentage to the ethanol amount just after preparation ([1]; 4 h later) | Relative percentage to the ethanol amount just after preparation ([1]; 8 h later) | Relative percentage to the ethanol amount just after preparation ([1]; 24 h later) | Relative percentage to the ethanol amount just after preparation ([1]; freshly prepared) | Amount of Retained Ethanol [1, 4] [mg] | Amount of Retained Ethanol [1, 5] [mg] | Amount of Retained Ethanol [1, 6] [mg] | Amount of Retained Ethanol [1, 7] [mg] | Amount of Retained Ethanol ([1]; freshly prepared) [mg] | Amount of Adsorbed Acetic Acid [2] [g] | Amount of Adsorbed Ethanol [2] [g] | Compound | also measured
(51%) | (8%) | (4%) | (2%) | (100%) | 103 | 17 | 8 | 5 | 203 | 0.18 | 0.25 | OC[C@H]1O[C@H](O[C@H]2O[C@H](CO)[C@@H](O)[C@H](O)[C@H]2O)[C@H](O)[C@@H](O)[C@@H]1O [Anhydrous trehalose, reference compound] | –
(101%) | (87%) | (3%) | (2%) | (100%) | 335 | 290 | 10 | 5 | 333 | 0.47 | 0.50 | OCC1OC2OCC3O[C@H](O[C@H]4C(O)C(CO)OC(OCC5O[C@H](O[C@@H](C1O)C2O)C(O)C(O)[C@@H]5O)C4O)C(O)C(O)[C@@H]3O (some centres unmarked) [CTS crystalline anhydrate] | Adsorbing capability relative to branched cyclodextrin ([3]; citronellol): about 1.2 fold; Amount of the Adsorbed Substance ([3]; citronellol): 195 mg/g saccharide; Amount of the Adsorbed Substance [3, 8]: 195 mg/g saccharide; Relative Amount of the Retained Substance [3, 8]: 42%; Adsorbing capacity relative to branched cyclodextrin ([3]; lavender oil): about 1.3 fold; Amount of the Adsorbed Substance ([3]; lavender oil): 190 mg/g saccharide; Amount of the Adsorbed Substance [3, 9]: 190 mg/g saccharide; Relative Amount of the Retained Substance [3, 9]: 12%; Amount of the Adsorbed Substance ([3]; phenethyl alcohol): 190 mg/g saccharide; Amount of the Adsorbed Substance [3, 10]: 190 mg/g saccharide; Relative Amount of the Retained Substance [3, 10]: 16%

Source: patent US20050013914A1, “Method of sustaining aroma and use thereof” (priority 2001, published 2005)
